Data as given in US5254563A, “Beta-carbolines, process for their production and their use in pharmaceutical agents” (Schering Aktiengesellschaft, priority 1989, dated 1993).

How the values were obtained:
[1] = Metabolic stability in human liver homogenate; type: in vitro ADME; conditions: 2 hours at 37° C., HPLC/fluorimetry, read-out: Metabolic Stability (substance remaining)
Protocol: The metabolic stability is determined by a homogenate of hepatic tissue in physiological common salt solution being incubated with the test substance for 0 or 2 hours at 37° C. Then, the incubation batch is extracted and the content of test substance in the extract is determined by HPLC/fluorimetry. The substance remaining after 2 hours in comparison with 0 hours is expressed in percent stability.

[2] = tested on: benzodiazepine receptors; assay: Inhibition of the H^3-BD binding in vivo (displacement of radioactively-labeled flunitrazepam); conditions: mice, i.p.; 3H-flunitrazepam i.v. after 15 minutes, forebrains removed after another 20 minutes; dose reducing specific binding to 50% of control

| Compound | remaining at 2 h [1] [%] | Inhibition of the H^3 -BD binding In vivo ED50 [2] |
| --- | --- | --- |
| COCc1c(C(=O)c2ccccc2)ncc2[nH]c3ccc(OCc4ccccc4)cc3c12 [A, 6-Benzyloxy-4-methoxymethyl-3-benzoyl-beta-carboline] | 72 | 5.0 mg/kg |
| COCc1c(C(=O)Oc2ccccc2)ncc2[nH]c3ccc(OCc4ccccc4)cc3c12 [B, 6benzyloxy-4-methoxymethyl-beta-carboline-3-carboxylic acid phenyl ester, reference compound] |  | greater than 90 mg/kg |
